We go through four compounds from the NIST ThermoML archive (doi:10.1021/acs.jced.8b00222).

Broadly, the mass density is mass per unit of volume. One may read the refractive index as a measure of how strongly the sample bends light.

For data set [1] the following is noted: 293.15 K; 101.33 kPa; Liquid; Pycnometric method.
The nature of data set [2]: refractive index (Na D-line) (dimensionless). Conditions: 293.15 K; 101.33 kPa; Liquid; Standard Abbe refractometry.

± gives the expanded uncertainty stated by the source.

Consider `COC1CCCC1` [methoxycyclopentane], for which the mass density in data set [1] came to 860.13 ± 2.1 kg/m3. In addition, the refractive index in data set [2] was determined as 1.4187 ± 0.0008. Regarding `O` [water], the refractive index in data set [2] was found to be 1.3334 ± 0.0005. Consider `CC(=O)O` [acetic acid], for which the mass density in data set [1] was 1048.93 ± 2.2 kg/m3. The refractive index in data set [2] was determined as 1.3717 ± 0.0008. Taken in the same sequence, the figures for `O=Cc1ccco1` [2-furaldehyde] were 1159.16 ± 2.2 kg/m3 and 1.5259 ± 0.0008.
